Key:
Assay in all cases: standardised AUC of viability dose-response curve (72 h) (fraction (0-1)); higher = less growth inhibition (more resistant)
[1] = system: MES-SA
In short: (§1)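 Sarcoma cell lines in 384-well plates were treated in triplicate for 72 h with 2.5 µl of compound dilution series (compound-plate series 10 mM to 0.0002 mM, 1:3 steps). ATPLite viability was scaled 1 (full) to 0 (none) and fitted per drug and cell line with a four-parameter log-logistic model. The standardised area under the dose-response curve in log-dose space (modified drexplorer computeAUC) runs from 1 (no response) to 0 (full response).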

[2] = system: KHOS-NP
In short: as §1

[3] = system: SYO-1
In short: as §1

[4] = system: A204
In short: as §1

[5] = system: SW684
In short: as §1

[6] = system: SW982
In short: as §1

[7] = system: SK-ES-1
In short: as §1

[8] = system: SW872
In short: as §1

[9] = system: KHOS-240S
In short: as §1

[10] = system: SW1353
In short: as §1

[11] = system: SK-LMS-1
In short: as §1

[12] = system: G401
In short: as §1

[13] = system: VA-ES-BJ
In short: as §1

[14] = system: HT1080
In short: as §1

[15] = system: RD
In short: as §1

[16] = system: HS729
In short: as §1

[17] = system: RD-ES
In short: as §1

SMILES | standardised AUC [1] | standardised AUC [2] | standardised AUC [3] | standardised AUC [4] | standardised AUC [5] | standardised AUC [6] | standardised AUC [7] | standardised AUC [8] | standardised AUC [9] | standardised AUC [10] | standardised AUC [11] | standardised AUC [12] | standardised AUC [13] | standardised AUC [14] | standardised AUC [15] | standardised AUC [16] | standardised AUC [17]
CC#CC(=O)N1CCC[C@H]1c1nc(-c2ccc(C(=O)Nc3ccccn3)cc2)c2c(N)nccn12 [ACALABRUTINIB] | 0.996 | 1 | 0.989 | 0.985 | 0.996 | 0.98 | 0.993 | 0.992 | 0.986 | 0.963 | 0.996 | 0.992 | 1 | 0.998 | 0.976 | 0.995 | 0.998
N#CC1(c2ccc(NC(=O)c3cccnc3NCc3ccncc3)cc2)CCCC1 [APATINIB] | 0.972 | 0.968 | 0.893 | 0.821 | 0.987 | 0.998 | 0.988 | 0.98 | 0.966 | 0.965 | 0.982 | 0.956 | 1 | 0.991 | 0.996 | 0.942 | 0.98
O=C(Nc1ccc(OC(F)(F)Cl)cc1)c1cnc(N2CC[C@@H](O)C2)c(-c2cc[nH]n2)c1 [ASCIMINIB] | 0.975 | 0.962 | 0.94 | 0.947 | 0.987 | 0.987 | 0.979 | 0.997 | 0.983 | 1 | 0.957 | 0.989 | 0.996 | 0.969 | 0.994 | 0.985 | 0.965
CNC(=O)c1ccccc1Sc1ccc2c(/C=C/c3ccccn3)n[nH]c2c1 [AXITINIB] | 0.857 | 0.93 | 0.669 | 0.545 | 0.954 | 0.887 | 0.863 | 0.859 | 0.849 | 0.928 | 0.975 | 0.857 | 0.901 | 0.963 | 0.89 | 0.826 | 0.926
Cc1cc2c(F)c(Oc3ncnn4cc(OC[C@@H](C)O)c(C)c34)ccc2[nH]1 [BRIVANIB] | 0.985 | 0.995 | 0.955 | 0.973 | 1 | 0.995 | 0.987 | 1 | 0.996 | 0.999 | 0.985 | 0.994 | 1 | 0.996 | 0.991 | 0.989 | 0.996
CO[C@H]1C[C@@H]2CC[C@@H](C)[C@@](O)(O2)C(=O)C(=O)N2CCCC[C@H]2C(=O)O[C@H]([C@H](C)C[C@@H]2CC[C@@H](OCCO)[C@H](OC)C2)CC(=O)[C@H](C)/C=C(\C)[C@@H](O)[C@@H](OC)C(=O)[C@H](C)C[C@H](C)/C=C/C=C/C=C/1C [CERTICAN] | 0.548 | 0.971 | 0.885 | 0.633 | 0.841 | 0.728 | 0.684 | 0.688 | 0.819 | 0.835 | 0.645 | 0.849 | 0.604 | 0.962 | 0.765 | 0.926 | 0.76
CC1(COc2ccc3c(c2)ncn3-c2ccc3cccc(N4CCC(N)CC4)c3n2)COC1 [CRENOLANIB] | 0.903 | 0.886 | 0.804 | 0.653 | 0.969 | 0.853 | 0.823 | 0.93 | 0.887 | 0.917 | 0.931 | 0.956 | 0.891 | 0.93 | 0.942 | 0.994 | 0.898
CC(C)(C)c1nc(-c2cccc(NS(=O)(=O)c3c(F)cccc3F)c2F)c(-c2ccnc(N)n2)s1 [DABRAFENIB] | 0.866 | 0.863 | 0.946 | 0.881 | 0.97 | 0.723 | 0.812 | 0.586 | 0.96 | 0.925 | 0.779 | 0.921 | 0.876 | 0.924 | 0.941 | 0.853 | 0.854
CCc1cnn2c(NCc3ccc[n+]([O-])c3)cc(N3CCCC[C@H]3CCO)nc12 [DINACICLIB] | 0.398 | 0.509 | 0.519 | 0.497 | 0.798 | 0.546 | 0.378 | 0.6 | 0.51 | 0.551 | 0.598 | 0.439 | 0.498 | 0.525 | 0.484 | 0.64 | 0.419
C[C@H](Nc1ncnc2nc[nH]c12)c1cc2cccc(Cl)c2c(=O)n1-c1ccccc1 [DUVELISIB] | 0.901 | 0.985 | 0.921 | 0.864 | 0.666 | 0.915 | 0.917 | 0.869 | 0.946 | 0.879 | 0.834 | 0.912 | 0.884 | 0.996 | 0.941 | 0.902 | 0.915
CC1(C)CC=C(c2nc(C3CC(C)(C)OC(C)(C)C3)ccc2NC(=O)c2nc(C#N)c[nH]2)CC1 [EDICOTINIB] | 0.971 | 0.994 | 1 | 0.985 | 1 | 1 | 0.976 | 1 | 0.987 | 1 | 0.99 | 0.987 | 0.991 | 0.984 | 0.984 | 0.931 | 0.994
CC(C)(O)CNc1nc(Nc2ccnc(C(F)(F)F)c2)nc(-c2cccc(C(F)(F)F)n2)n1 [ENASIDENIB] | 0.99 | 0.981 | 0.958 | 0.972 | 0.973 | 1 | 0.945 | 0.998 | 0.995 | 0.99 | 0.998 | 0.992 | 0.991 | 0.999 | 0.984 | 0.997 | 0.992

Reference: the supplement of paper PMC10883282
